From patent US20160081354A1, “METHOD FOR TREATMENT OF MICROORGANISMS DURING PROPAGATION, CONDITIONING AND FERMENTATION USING HOPS ACID EXTRACTS AND NISIN” (Solenis Technologies, L.P., priority 2014, published 2016)

Tests used:
L. plantarum = experiment: Corn mash fermentation lab test: bacterial colony counts after antimicrobial addition; type: cell-based; settings: nisin alone 5 ppm, virginiamycin 0.5 ppm
Method: Evaluations were conducted at the National Corn-to-Ethanol Research Center, utilizing hops acid extracts and nisin. The samples tested and their concentrations can be found in FIG. 1 and Tables 2 and 4. The tests were conducted to evaluate the effects of binary antimicrobials on ethanol production in corn mash produced under conditions that are similar to those used in the fuel ethanol industry. Two specific effects were investigated: (1) the ability of antimicrobials to affect ethanol yield and sugar conversion in fermentations that are contaminated by lactic acid bacteria, and (2) the ability of antimicrobials to control bacterial infections compared to control bacteria-free fermentations. Three 160-gram slurries of corn flour, water and enzyme (30% w/w dry solids) were made for each treatment and control (inoculated and uninoculated). The slurries were incubated for 90 minutes at 83° C., cooled to 40° C., and then inoculated with L. plantarum. Next, the slurries were dosed with antimicrobial. The facility dosed hops acid extracts and nisin to 250-mL Erlenmeyer flasks and samples were collected at 15, 30 and 60 minutes post antimicrobial addition. After the 3 time-point samples were collected, the pH of the mash was adjusted to <5.2 by addition of 300 μl of 5-N sulfuric acid. All enzymes, nutrients, and other amendments added to the fermentation flasks were freshly prepared before use. Urea was added as a sterile 0.2-g/ml solution to a final concentration of 500 ppm (w/w) based on the nitrogen content of the urea (w/w, based on the total mass of mash). The glucoamylase enzyme (Spirizyme Excel, Novozymes) was prepared as a 0.25-g/ml solution and added at a dose of 0.066% (w/w, based on the wet weight of corn). Sterile water was added to equalize the total solids content of each treatment. […] The mass of each flask was recorded after all additions were made, then sanitized fermentation traps were inserted into each flask and they were weighed again. […] Fermentation progress was monitored by weighing the fermentation flasks periodically during the 3-day incubation (at 0, 17.5, 22.5, 42.5, 48, and 64 hrs after inoculation with yeast). The concentrations of substrates (glucose, DP2, DP3, and DP4+, where “DPx” represent glucose oligomers with “x” subunits) and products (ethanol, glycerol, lactic acid, and acetic acid) were measured by HPLC at the end of fermentation. Samples were prepared for HPLC by centrifugation to remove large solids, followed by filtration through 0.45-μm syringe filters, and acidification to pH of approximately 2 by addition of sulfuric acid to a final concentration of 0.01 N. The final pH, concentrations of total dry solids and dissolved dry solids, and the density of the beer filtrate was measured were measured after incubation for 64 hours. […]

Weisella confusa = settings: cited from earlier work
[1] = system: yeast (Saccharomyces cerevisiae) fermentations contaminated by lactic acid bacteria (L. plantarum); experiment: Corn mash fermentation lab test: ethanol and lactic acid at the end of fermentation; type: cell-based; settings: 64 hours, nisin alone 5 ppm, Virginiamycin 0.5 ppm
Method: Evaluations were conducted at the National Corn-to-Ethanol Research Center, utilizing hops acid extracts and nisin. The samples tested and their concentrations can be found in FIG. 1 and Tables 2 and 4. The tests were conducted to evaluate the effects of binary antimicrobials on ethanol production in corn mash produced under conditions that are similar to those used in the fuel ethanol industry. Two specific effects were investigated: (1) the ability of antimicrobials to affect ethanol yield and sugar conversion in fermentations that are contaminated by lactic acid bacteria, and (2) the ability of antimicrobials to control bacterial infections compared to control bacteria-free fermentations. Three 160-gram slurries of corn flour, water and enzyme (30% w/w dry solids) were made for each treatment and control (inoculated and uninoculated). The slurries were incubated for 90 minutes at 83° C., cooled to 40° C., and then inoculated with L. plantarum. Next, the slurries were dosed with antimicrobial. […] The mass of each flask was recorded after all additions were made, then sanitized fermentation traps were inserted into each flask and they were weighed again. […] Fermentation progress was monitored by weighing the fermentation flasks periodically during the 3-day incubation (at 0, 17.5, 22.5, 42.5, 48, and 64 hrs after inoculation with yeast). The concentrations of substrates (glucose, DP2, DP3, and DP4+, where “DPx” represent glucose oligomers with “x” subunits) and products (ethanol, glycerol, lactic acid, and acetic acid) were measured by HPLC at the end of fermentation. Samples were prepared for HPLC by centrifugation to remove large solids, followed by filtration through 0.45-μm syringe filters, and acidification to pH of approximately 2 by addition of sulfuric acid to a final concentration of 0.01 N. The final pH, concentrations of total dry solids and dissolved dry solids, and the density of the beer filtrate was measured were measured after incubation for 64 hours. […]

yeast = settings: fermentation mixture; cited from earlier work

Virginiamycin
Colony counts after antimicrobial addition (L. plantarum; time point 0.25 (15 minutes post addition)): 1.00E+06
Colony counts after antimicrobial addition (L. plantarum; time point 0.5 (30 minutes post addition)): 1.35E+06
Colony counts after antimicrobial addition (L. plantarum; time point 1 (60 minutes post addition)): 1.95E+06
Colony counts at the end of fermentation (L. plantarum; time point 64 (64 hours)): 6.67E+04
concentration required to inhibit growth of Weisella confusa (Weisella confusa): over 25 mg/L
Average Ethanol ([1]; end of fermentation): 11.86 %, w/v
Average Final Lactic Acid Concentration ([1]; end of fermentation): 0.38 %, w/w
Average Final Ethanol Yield ([1]; grams ethanol per grams of dry corn, average of three flasks): 0.312 g/g
concentration that will suppress production of ethanol (yeast): over 2 mg/L
